For data set [1] the following is noted: background; in words; cited from earlier work.
Data set [2] has as its system HBV. Conditions: background; in words; cited from earlier work.
The test system of data set [3] is 3TC resistant HBV (DM2). The data set can be described thus: Activity against 3TC resistant HBV (DM2, L526MM550V) in transfected HepG2 cells. Conditions: in words; for effect on 3TC resistant HBV: DM2, HepG2, 9 days. The format is cell-based, Hepatitis B virus.
The subject of data set [4] is WT10. The data set can be described thus: Activity against wild-type HBV (WT10) in transfected HepG2 cells. In kind it is cell-based, Hepatitis B virus. The conditions noted are these: in words.
Data set [5] in a line: Solubility: saturated solution in PBS at room temperature. In kind it is physicochemical. Conditions: aqueous buffer. The text has this: 3. The symbol "*" denotes the concentration of the saturated solution in
PBS at room temperature.

The nature of data set [6]: Cytotoxicity, CEM cell growth. Conditions: human, cem cells; 3 days; read-out: Cytotoxicity (IC50) CEM cell. In kind it is cell-based. On the procedure: (§1) To determine the cellular toxicity of the present compounds, the T-lymphoblastoic cell line (CEM) and the HEP-G2 cell line (parent cell line from which 2.2.15 cell line is produced) were used. Cells were subjected to varying concentrations of the drug(s) and cell numbers were determined 3 days post treatment by the method described by Chen, C-H and Cheng, Y-C, J. Biol. Chem., 264, 11934 (1989). Concentrations of the drug which would result in inhibition of cell growth were determined from the plot generated by representing cell numbers corresponding to the individual drug concentrations.

For data set [7], the system named is HBV. In words: microbe, parasite or virus in culture. The format is cell-based, Hepatitis B virus. The conditions noted are these: for EC50: Hepatitis B virus, 144 h; for inhibition of HBV replication / DNA level: in words.
For data set [8], the system named is HBV RNA. The data set can be described thus: HBV RNA level (Northern analysis). In kind it is cell-based, Hepatitis B virus. The conditions noted are these: in words. On the procedure:
The biological activity of the present compounds was assessed as described by Doong, S-L, et al., Proc. Natl. Acad. Sci. U.S.A 88, 8495-8499 (1991). The human hepatoma cell line carrying HBV (cell line designated 2.2.15) provided by Dr. G. Aces was used in the study. Price, et al., Proc. Natl. Acad. Sci. U.S.A. 86, 8541 (1989). Briefly, six day-old cultures were treated with varying concentrations of the drug in the culture medium (Minimum essential medium with Earl's salts and 10% fetal bovine serum). The drug was left in the culture medium for a period of 3 days after which period the medium was aspirated and fresh medium containing the same concentration(s) of the drug was added. […] Inhibition of the viral replication was determined by the comparison of the viral DNA from drug-treated versus control cultures not treated with the drug. In addition, supernatant obtained from the polyethylene glycol precipitation of the cell culture medium (above) was measured for the presence of two HBV antigens (HBsAg and HBeAg) using enzyme immunoassay kits from Abbott Laboratories, Inc. [HBs (rDNA) EIA and HBe (rDNA)EIA], pursuant to standard practice (FIG. 3A). RNA levels were determed using Northern analysis with cellular albumin RNA being measured as a load control to standardize the quality of the HBV RNA measurement (FIG. 3B).

Data set [9] is described as follows: Cytotoxicity, HepG2 cell growth. The format is cell-based. The conditions noted are these: human, hepg2 cells; 3 days; read-out: Cytotoxicity (IC50) HepG2 cell. On the procedure: as §1
Data set [10] has as its system HBsAg in Hep3B cells. The data set can be described thus: Suppression of HBsAg secretion in Hep3B cells, serum-free, 2 days. In kind it is cell-based. Conditions: Homo sapiens, 48 h, read-out: EC50 Hep3B (50% reduction of HBsAg secretion). The text has this: (§2) Biological testing results of Helioxanthin and
(§3) its derivatives for suppression of HBsAg
(§4) in HepA2 and Hep3B cells in serum-free condition for 2 days
(§5) The symbol, "**" denotes EC50, the concentration of tested compounds
(§6) which exerted 50% reduction of HBsAg secretion in human hepatoma cells.

Data set [11] has as its system HBsAg. The data set can be described thus: microbe, parasite or virus in culture. In kind it is cell-based, Hepatitis B virus. Conditions: for EC50: Hepatitis B virus, 144 h, read-out: Anti-viral activity (ED50) HbsAg.
For data set [12], the system named is Yellow Fever virus. In words: microbe, parasite or virus in culture. The conditions noted are these: for EC50: Yellow fever virus, BHK, 144 h, read-out: Anti-viral activity (ED50) YFV, plaque reduction, BHK cells, 6 days; for activity against the Yellow fever virus: in words. In kind it is cell-based.
Data set [13] relates to HBsAg in HepA2 cells. In words: Suppression of HBsAg secretion in HepA2 cells, serum-free, 2 days. The conditions noted are these: Homo sapiens, HepA2, 48 h, read-out: EC50 HepA2 (50% reduction of HBsAg secretion). The format is cell-based.
Source text: as §2, §3, §4
The symbol, "*" denotes HepA2, HBV DNA stable transfected HBV dimer DNA.
as §5, §6

In brackets after ≈: the same amount, converted by molar mass. Entries after “also recorded” stand apart in the source; their conditions may differ. A value given as a limit tells only on which side of the number the result lay.

In the case of `Nc1ccn([C@H]2CC[C@@H](CO)O2)c(=O)n1` [2',3'-dideoxycytidine (ddC), 2',3'-dideoxycytidine], the toxicity result in data set [1] is “high toxicity on the central and peripheral nervous system”.
Regarding `Nc1ccn([C@@H]2CS[C@H](CO)O2)c(=O)n1` [Compound 3TC], in data set [2], the “effect on HBV infection” value was “recurrence of HBV after a period of treatment”. In addition, in data set [3] (DM2), the “sensitivity of HBV DNA production of DM2 to 3TC” value is recorded as “resistant”. Further, the “sensitivity of HBV DNA production of WT10 to 3TC” value in data set [4] is “sensitive”.
Broadly, the solubility is the concentration that dissolves in the medium under given conditions. In data set [5], `O=C1OCc2c1cc1ccc3c(c1c2-c1ccc2c(c1)OCO2)OCO3` [Compound 145, 7,8-methylenedioxy-1-(3',4'-methylenedioxyphenyl)-2-hydroxymethylnaphthalene-3-carboxylic acid lactone] came in with a solubility of 24.7 µM (≈ 8.6 µg/mL). For the same compound, the CC50 at 72 h in data set [6] is 22 µM; in data set [9], 26 µM. Moreover, the “effect on 3TC resistant HBV” value in [3] was “excellent anti-HBV activity even in 3TC (L(-)SddC) resistant HBV”; in [3] (listed as helioxanthin) it was “stronger inhibition of viral replication of strains of HBV that have become resistant to 3TC”. For the same compound, the EC50 came to 1 µM in data set [7]; 0.025 µM in data set [10]; 4 µM in data set [11]; 9.5 µM in [12]; 0.25 µM in data set [13]. For the same compound, the “inhibition of HBV replication / DNA level” value is “selectively inhibited HBV replication; also recorded: decreased the RNA and DNA level; also recorded: the most active compound in the series tested; also recorded: inhibit HBV replication in cell culture” in data set [7]; “selectively inhibited HBV replication” in data set [7] (listed as helioxanthin). Moreover, the “HBV RNA level” value is “decreased the RNA and DNA level; also recorded: decrease the RNA level of HBV” in data set [8]; “decreased the RNA level” in data set [8] (listed as helioxanthin). In addition, the HbsAg expression inhibition result in [11] (in words) was “inhibit HBV replication and HbsAg expression”. For the same compound, the “activity against the Yellow fever virus” value in [12] is reported as “demonstrated activity against the Yellow fever virus”.
With `Nc1nc2c(ncn2CCC(CO)CO)c(=O)[nH]1` [PCV], in data set [2], the “effect on HBV infection” value is recorded as “recurrence of HBV after a period of treatment”.
Take `O=C1OCc2cc3ccc4c(c3c(-c3ccc5c(c3)OCO5)c21)OCO4` [ZHU-IX-139-2, 7,8-methylendioxy-1-(3',4'-methylenedioxyphenyl)-3-hydroxymethylnapthalene-2-carboxylic acid lactone]: the solubility in data set [5] was 21 µM (≈ 7.31 µg/mL). Also, the CC50 at 72 h in data set [6] was 18 µM; in data set [9], 12 µM. The EC50 is > 10 µM in data set [7], 10 µM in [11] and 16 µM in data set [12].
Regarding `O=C1OCc2c1cc1c(Br)cc3c(c1c2-c1cc2c(cc1Br)OCO2)OCO3` [ZHU-IX-143, 8,2'-dibromo-5,6-methylenedioxy-4-(4',5'-methylenedioxyphenyl)-3-hydroxymethylnapthalene-2-carboxylic acid lactone], the solubility in data set [5] amounted to 11.9 µM (≈ 6.02 µg/mL). The figures for the CC50 at 72 h in data set [6] and in data set [9] were > 30 µM and 20 µM, respectively. Also, the EC50 in [7], in data set [11] and in [12] was > 10 µM each time.
The compound `O=C(O)c1cc2ccc3c(c2c(-c2ccc4c(c2)OCO4)c1CO)OCO3` [ZHU-IX-157, sodium 5,6-methylenedioxy-4-(3',4'-methylenedioxyphenyl)-3-hydroxymethylnapthalene-2-carbonate] came in with a solubility in data set [5] of 255 µM. In addition, the CC50 at 72 h in data set [6] is > 30 µM; in data set [9] it was 26 µM. Also, the EC50 in [7] was 2.5 µM; in data set [11], 10 µM; in data set [12], 8 µM. In [12], the “activity against the Yellow fever virus” value is “demonstrated activity against the Yellow fever virus”.
For `Nc1ncnc2c1ncn2[C@@H]1O[C@H](COP(=O)(O)O)[C@@H](O)[C@@H]1O` [ara-AMP], the toxicity entry in data set [1] is listed as “extremely toxic”. Moreover, the “effect on HBV infection” value in data set [2] is given as “transiently suppress HBV infection”.

(Values after US6306899A (priority 1999, dated 2001).)
